21 molecules from US20120142685A1, “ORGANIC COMPOUNDS” (priority 2007, published 2012) can be followed below.

One assay deals with T1, protein kinase D1 (PKD1) (Homo sapiens, UniProt Q15139).
T1 construct: This assay is performed with full length wild-type enzyme that is expressed and purified from Sf9 insect cells; made in house; host or cells: Sf9 insect cells
T1 sequence (Q15139 1-912): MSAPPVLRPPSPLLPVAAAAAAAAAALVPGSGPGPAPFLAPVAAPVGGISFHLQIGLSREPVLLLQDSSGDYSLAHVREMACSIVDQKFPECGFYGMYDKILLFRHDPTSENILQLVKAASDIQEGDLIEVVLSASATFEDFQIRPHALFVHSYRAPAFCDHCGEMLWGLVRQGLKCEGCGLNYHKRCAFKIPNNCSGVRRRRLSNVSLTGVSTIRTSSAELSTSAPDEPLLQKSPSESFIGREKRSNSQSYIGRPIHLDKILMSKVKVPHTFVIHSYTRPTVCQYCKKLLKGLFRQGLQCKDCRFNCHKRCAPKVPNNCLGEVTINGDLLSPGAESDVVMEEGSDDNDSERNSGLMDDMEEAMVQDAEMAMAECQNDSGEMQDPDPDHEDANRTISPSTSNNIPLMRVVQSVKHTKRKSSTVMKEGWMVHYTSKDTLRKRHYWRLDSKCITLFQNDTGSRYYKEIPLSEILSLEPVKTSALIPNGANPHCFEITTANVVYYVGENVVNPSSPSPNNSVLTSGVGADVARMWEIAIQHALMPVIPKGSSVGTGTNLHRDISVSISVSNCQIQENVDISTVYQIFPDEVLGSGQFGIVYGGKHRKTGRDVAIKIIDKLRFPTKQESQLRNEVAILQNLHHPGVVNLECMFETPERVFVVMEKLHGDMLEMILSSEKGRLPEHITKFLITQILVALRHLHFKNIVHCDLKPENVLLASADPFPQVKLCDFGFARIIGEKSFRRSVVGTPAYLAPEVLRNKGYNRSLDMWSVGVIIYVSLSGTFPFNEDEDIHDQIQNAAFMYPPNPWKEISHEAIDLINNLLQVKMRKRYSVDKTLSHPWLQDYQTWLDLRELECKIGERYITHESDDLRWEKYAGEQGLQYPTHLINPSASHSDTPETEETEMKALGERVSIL
Put plainly: PKD1 TR-FRET (LANCE) kinase assay. In kind it is biochemical. To be noted: full length wild-type enzyme, 20 μM ATP; read-out: Inhibitory Activity PKD1. The text has this: The assay to measure protein kinase D1 (PKD1) activity is a time-resolved fluorescence resonance transfer (TR-FRET) assay using PerkinElmer's LANCE™ technology. In this case, a biotinylated syntide-2 peptide is used as the substrate in this reaction. Phosphorylation of the syntide-2 substrate is detected by a specific antibody that recognizes the phosphorylated peptide. A second fluorophore, APC, is conjugated to streptavidin that binds the biotinylated syntide-2 peptide. For detection, the europium fluorophore can be excited by 340 nM light which then emits at 615 nM. Therefore, when the europium labeled secondary antibody binds on the phosphorylated peptide, it is brought into close contact with the APC and excites this fluorophore. The APC emission is at 665 nm and the 665 nM:615 nM ratio is a readout of PKD1 activity.
This assay is performed with full length wild-type enzyme that is expressed and purified from Sf9 insect cells. The reaction buffer consists of 35 mM Tris-HCl pH7.5, 5 mM MgCl2, 0.02% Tween-20, 20 μM ATP, 1 mM DTT and 0.2 μg/mL PKD1 enzyme. The enzyme reaction is initiated by the addition of 2 μM syntide-2 peptide substrate and the reaction carried out for 50 minutes at room temperature. The reaction is stopped by a stop/detection buffer consisting of 50 mM EDTA, 0.18 mg/mL rabbit polyclonal anti-phospho syntide-2 antibody, 0.5 nM europium labeled anti-rabbit IgG and 10 nM streptavidin conjugated APC. After a one hour incubation with the stop/detection buffer, the reaction is read on an Envision 2100 Reader using a LANCE™ Eu/APC dual protocol. As described above, a 665 nM:615 nM ratio is determined to measure substrate phosphorylation and enzyme activity. Compounds are typically tested in an 11 point dose response fashion in triplicate for each concentration used. IC50 values are calculated using an Activity Base (IDBS) software program.
(In general: Time-resolved FRET reads energy transfer from a long-lived donor to a nearby acceptor.)

A further assay concerns HDAC5 nuclear export. Put plainly: HDAC5 nuclear export assay in neonatal rat ventricular myocytes (GFP-HDAC5, PGF2α stimulated). The class given is cell-based. The note with it: Ventricular myocyte, 2 h. The method, then:
Compounds are evaluated in the HDAC5 nuclear […] assay, a 384-well plate-based assay that enables high throughput screening (HTS) to identify small molecules that block agonist-dependent nuclear export of HDAC5. This assay employs the Cellomics High Content Imaging platform (Giuliano & Taylor 1998) and adenovirus encoding green fluorescent protein (GFP) tagged HDAC5. Neonatal rat ventricular myocytes (NRVMs) are infected with GFP-HDAC5 encoding virus and plated on gelatin-coated 384-well dishes. Cells are exposed to compound and stimulated with an prostaglandin (PGF2α), which is a potent stimulus for HDAC5 nuclear export. Following two hours of stimulation, cells are fixed and GFP-HDAC5 localization quantified using the Cellomics system, which provides a read-out of relative fluorescence intensity in the cytoplasmic versus nuclear compartment.

Where [1] appears, read: NRVMs, GFP-HDAC5, PGF2α stimulation two hours, read-out: Inhibitory Activity HDAC.
Setting [2] is: read-out: Inhibitory Activity HDAC (nM).

Where two headings read alike, the source gives them in different places.

Regarding `CNc1cc(-c2cc3cnccc3c(NCCCO)n2)ccn1` [Example 1], at protein kinase D1 (PKD1), the IC50 was determined as 0.377 µM.

Turning to `CNc1cc(-c2cc3cnccc3c(NC)n2)ccn1` [Example 2, 1-Methylamino-3-(2-methylaminopyridin-4-yl)-[2,6]-naphthyridine], on protein kinase D1 (PKD1), the IC50 turned out to be 0.833 µM.

`c1cc2c(N3CCNCC3)nc(-c3ccnc(NC4CCCCC4)c3)cc2cn1` [Example 3, Cyclohexyl-[4-(1-piperazin-1-yl-[2,6]naphthyridin-3-yl)pyridin-2-yl]amine]: the IC50 in the assay on HDAC5 nuclear export (setting [1]) was determined as 32 nM; at protein kinase D1 (PKD1) it was 0.0006 µM.

Take `c1ccc(Nc2cc(-c3cc4cnccc4c(N4CCNCC4)n3)ccn2)cc1` [Example 4, Phenyl-[4-(1-piperazin-1-yl-[2,6]naphthyridin-3-yl)pyridin-2-yl]amine]: the IC50 was determined as 2 nM with HDAC5 nuclear export (setting [2]) and 0.011 µM at protein kinase D1 (PKD1).

For `OCCNc1nc(-c2ccnc(NC3CCCCC3)c2)cc2cnccc12` [Example 5, 2-[3-(2-Cyclohexylaminopyridin-4-yl)-[2,6]naphthyridin-1-ylamino]ethanol], the IC50 at protein kinase D1 (PKD1) turned out to be 0.382 µM.

Take `CC(C)Nc1cc(-c2cc3cnccc3c(NCCO)n2)ccn1` [Example 6, 2-[3-(2-Isopropylaminopyridin-4-yl)-[2,6]naphthyridin-1-ylamino]ethanol]: at protein kinase D1 (PKD1), the IC50 was found to be 0.156 µM.

In the case of `COc1cccc(Nc2cc(-c3cc4cnccc4c(NCCO)n3)ccn2)c1` [Example 7], the IC50 in the assay on HDAC5 nuclear export (setting [1]) came out at 86 nM; on protein kinase D1 (PKD1), 0.055 µM.

As for `CN(C)CCNc1nc(-c2ccnc(NC3CCCCC3)c2)cc2cnccc12` [Example 8, N-[3-(2-Cyclohexylaminopyridin-4-yl)-[2,6]naphthyridin-1-yl]-N′,N′-dimethylethane-1,2-diamine], the IC50 on protein kinase D1 (PKD1) was 0.055 µM.

Consider `CN(C)CCNc1nc(-c2ccnc(Nc3ccccc3)c2)cc2cnccc12` [Example 9, N,N-Dimethyl-N′-[3-(2-phenylaminopyridin-4-yl)-[2,6]naphthyridin-1-yl]-ethane-1,2-diamine], for which the IC50 is 756 nM in the assay on HDAC5 nuclear export (setting [1]) and 0.041 µM on protein kinase D1 (PKD1).

In the case of `NC(=O)C1CCN(c2nc(-c3ccnc(NC4CCCCC4)c3)cc3cnccc23)CC1` [Example 10, 1-[3-(2-Cyclohexylaminopyridin-4-yl)-[2,6]naphthyridin-1-yl]piperidine-4-carboxylic acid amide], the figures for the IC50 in the assay with HDAC5 nuclear export (setting [1]) and on protein kinase D1 (PKD1) were 203 nM and 0.083 µM, respectively.

Turning to `CC(=O)N1CCN(c2nc(-c3ccnc(NC4CCCCC4)c3)cc3cnccc23)CC1` [Example 11, 1-{4-[3-(2-Cyclohexylaminopyridin-4-yl)-[2,6]naphthyridin-1-yl]piperazin-1-yl}ethanone], on protein kinase D1 (PKD1), the IC50 turned out to be 0.186 µM.

Take `CN(C)CC1CCN(c2nc(-c3ccnc(NC4CCCCC4)c3)cc3cnccc23)CC1` [Example 12, Cyclohexyl-{4-[1-(4-dimethylaminomethylpiperidin-1-yl)-[2,6]naphthyridin-3-yl]pyridin-2-yl}amine]: at protein kinase D1 (PKD1), the IC50 amounted to 0.207 µM.

Turning to `CN1CCN(c2nc(-c3ccnc(NC4CCCCC4)c3)cc3cnccc23)CC1` [Example 13, Cyclohexyl-{4-[1-(4-methylpiperazin-1-yl)-[2,6]naphthyridin-3-yl]pyridin-2-yl}amine], the IC50 was determined as 206 nM with HDAC5 nuclear export (setting [2]) and 0.002 µM at protein kinase D1 (PKD1).

In the case of `c1cc2c(NC3CCNC3)nc(-c3ccnc(NC4CCCCC4)c3)cc2cn1` (centres unmarked) [Example 14, [3-(2-Cyclohexylaminopyridin-4-yl)-[2,6]naphthyridin-1-yl]pyrrolidin-3-ylamine], the IC50 is 36 nM in the assay on HDAC5 nuclear export (setting [1]) and 0.001 µM at protein kinase D1 (PKD1).

On to `c1cc2c(NC3CCCNC3)nc(-c3ccnc(NC4CCCCC4)c3)cc2cn1` (centres unmarked) [Example 15, [3-(2-Cyclohexylaminopyridin-4-yl)-[2,6]naphthyridin-1-yl]piperidin-3-ylamine], for which the values for the IC50 in the assay with HDAC5 nuclear export (setting [2]) and at protein kinase D1 (PKD1) were 605 nM and 0.014 µM, respectively.

With `O=C(NCCO)C1CCN(c2nc(-c3ccnc(NC4CCOCC4)c3)cc3cnccc23)CC1` [Example 16, 1-{3-[2-(Tetrahydropyran-4-ylamino)pyridin-4-yl]-[2,6]naphthyridin-1-yl}piperidine-4-carboxylic acid (2-hydroxyethyl)amide], the figures for the IC50 in the assay on HDAC5 nuclear export (setting [1]) and at protein kinase D1 (PKD1) were 60 nM and 0.002 µM, respectively.

`O=C(NC1CC1)C1CCN(c2nc(-c3ccnc(NC4CCOCC4)c3)cc3cnccc23)CC1` [Example 17, 1-{3-[2-(Tetrahydropyran-4-ylamino)pyridin-4-yl]-[2,6]naphthyridin-1-yl}piperidine-4-carboxylic acid cyclopropylamide]: the IC50 in the assay on HDAC5 nuclear export (setting [2]) amounted to 88 nM; at protein kinase D1 (PKD1) it was 0.002 µM.

As for `CCNC(=O)N1CCN(c2nc(-c3ccnc(Nc4ccn(C)n4)c3)cc3cnccc23)CC1` [Example 18, 4-{3-[2-(1-Methyl-1H-pyrazol-3-ylamino)pyridin-4-yl]-[2,6]naphthyridin-1-yl}piperazine-1-carboxylic acid ethylamide], the IC50 in the assay on HDAC5 nuclear export (setting [2]) is 534 nM; at protein kinase D1 (PKD1), 0.02 µM.

For the molecule `Cn1ccc(Nc2cc(-c3cc4cnccc4c(N4CCC(C(N)=O)CC4)n3)ccn2)n1` [Example 19, 1-{3-[2-(1-Methyl-1H-pyrazol-3-ylamino)pyridin-4-yl]-[2,6]naphthyridin-1-yl}piperidine-4-carboxylic acid amide], the IC50 in the assay with HDAC5 nuclear export (setting [1]) was 12 nM; on protein kinase D1 (PKD1), 0.0004 µM.

As for `Cn1ccc(Nc2cc(-c3cc4cnccc4c(N4CCC5(CCNC5=O)CC4)n3)ccn2)n1` [Example 20, 8-{3-[2-(1-Methyl-1H-pyrazol-3-ylamino)pyridin-4-yl]-[2,6]naphthyridin-1-yl}-2,8-diaza-spiro[4.5]decan-1-one], the IC50 with HDAC5 nuclear export (setting [1]) is 361 nM; on protein kinase D1 (PKD1) it was 0.017 µM.

With `COCCNc1cc(-c2cc3cnccc3c(N3CCNCC3)n2)ccn1` [Example 21, (2-Methoxyethyl)-[4-(1-piperazin-1-yl-[2,6]naphthyridin-3-yl)-pyridin-2-yl]amine], the IC50 in the assay with HDAC5 nuclear export (setting [1]) was determined as 371 nM; on protein kinase D1 (PKD1) it was 0.014 µM.
